Each compound was assayed against T1, Human 5-HT4 receptor (5-HT4b) (Homo sapiens, UniProt Q13639) (assay: Test Example 3: Human 5-HT4 receptor binding assay, membranes of CHO-K1 cells stably expressing 5-HT4b receptors (Table 99)). Details: mean value of each group.
T1 construct: expressed in transfected cells; membrane preparation
Method: To an assay tube were added 0.1 nM [^3H]-GR113808 {chemical name: [1-[2-(methylsulfonylamino) ethyl]-4-piperidinyl]methyl 1-methylindole-3-carboxylate}, receptor membrane preparations, and Hepes buffer (50 mM, pH 7.4, 4° C., 1 ml) containing test compounds or 30 μM serotonin; and the mixture was incubated at 37° C. for 30 minutes. On quenching the reaction, the mixture was rapidly filtered on whatman GF/B filter, which was presoaked in 0.1% polyethyleneimine for 1 hour, by using Brandel cell Harvester, and washed with ice-cooled 50 mM Tris-HCl (pH 7.7, 4 ml) three times. To the filter after filtration was added a liquid scintillator (Ecoscint), and then a radioactivity was determined by a liquid scintillation counter.
50% Inhibition concentrations (IC50) were determined from inhibition rates of test compounds to specific bindings which were obtained by subtracting nonspecific bindings from total binding amounts of [^3H]-GR113808.
Human 5-HT4 receptor membrane preparations were prepared from CHO-K^1 cells which stably express 5-HT4b receptors, and human 5-HT4 receptor binding assay was carried out in a similar manner as in the guinea pig 5-HT4 receptor binding assay. The following tables show results of serotonin 4 (5-HT4) receptor binding assay. In the following tables, the compounds used in the test are shown in numbers which correspond to the Example numbers above where the preparations of the compounds are described.

T1 sequence (Q13639 whole entry): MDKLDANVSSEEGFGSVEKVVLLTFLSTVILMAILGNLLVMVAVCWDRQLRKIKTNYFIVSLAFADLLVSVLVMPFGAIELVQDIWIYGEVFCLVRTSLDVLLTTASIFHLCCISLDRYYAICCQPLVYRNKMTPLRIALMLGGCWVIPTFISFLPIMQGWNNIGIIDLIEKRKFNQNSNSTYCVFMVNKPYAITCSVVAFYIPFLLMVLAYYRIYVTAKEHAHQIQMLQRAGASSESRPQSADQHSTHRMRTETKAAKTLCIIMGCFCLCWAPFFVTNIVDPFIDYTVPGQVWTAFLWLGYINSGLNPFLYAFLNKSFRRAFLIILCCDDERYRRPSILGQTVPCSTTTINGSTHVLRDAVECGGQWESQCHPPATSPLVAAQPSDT

Structure (SMILES)	IC50 [nM]
CC(=O)N1CCC(N2CCC(c3nc(-n4nc(C(C)C)c5cccc(F)c54)no3)CC2C)CC1 (centres unmarked) [Example 418, 1-(4-{3-[7-fluoro-3-(propan-2-yl)-1H-indazol-1-yl]-1,2,4-oxadiazol-5-yl}-2-methyl-1,4′-bipiperidin-1′-yl}ethanone]	442
Cc1cccc2c1c(C(C)C)nn2-c1noc(C2CCN(C3CCC3)CC2)n1 [Example 423, 1-[5-(1-cyclobutylpiperidin-4-yl)-1,2,4-oxadiazol-3-yl]-4-methyl-3-(propan-2-yl)-1H-indazole]	136
Cc1cccc2c1c(C(C)C)nn2-c1noc(C2CCN(C3CCOCC3)CC2)n1 [Example 424, 4-methyl-3-(propan-2-yl)-1-{5-[1-(tetrahydro-2H-pyran-4-yl)piperidin-4-yl]-1,2,4-oxadiazol-3-yl}-1H-indazole]	55
CC(C)c1nn(-c2noc(C3CCN(C4CCS(=O)(=O)CC4)CC3)n2)c2c(F)cccc12 [Example 444, 1-{5-[1-(1,1-dioxidotetrahydro-2H-thiopyran-4-yl)piperidin-4-yl]-1,2,4-oxadiazol-3-yl}-7-fluoro-3-(propan-2-yl)-1H-indazole]	96.8
CC(C)Cc1nn(-c2noc(C3CCN(C4CCN(C(=O)CO)CC4)CC3)n2)c2c(F)cccc12 [Example 526, 1-(4-{3-[7-fluoro-3-(2-methylpropyl)-1H-indazol-1-yl]-1,2,4-oxadiazol-5-yl}-1,4′-bipiperidin-1′-yl)-2-hydroxyethanone]	25.2
CC(C)c1nn(-c2noc(C3CCN(C4C5CCCC4CN(C(=O)CO)C5)CC3)n2)c2c(F)cccc12 (stereo not drawn) [Example 535, 1-[(9-anti)-9-(4-{3-[7-fluoro-3-(propan-2-yl)-1H-indazol-1-yl]-1,2,4-oxadiazol-5-yl}piperidin-1-yl)-3-azabicyclo[3.3.1]non-3-yl]-2-hydroxyethanone]	29.7
CCOC(=O)N1CCC(N2CCC(c3nc(-n4nc(C(C)C)c5cccc(F)c54)no3)CC2)C(OC)C1 (centres unmarked) [Example 556, ethyl 4-{3-[7-fluoro-3-(propan-2-yl)-1H-indazol-1-yl]-1,2,4-oxadiazol-5-yl}-3′-methoxy-1,4′-bipiperidine-1′-carboxylate]	52.1
CC(=O)N1CC[C@@H](NC2CC(c3nc(-n4nc(C(C)C)c5cccc(F)c54)no3)C2)C1 (stereo partly drawn) [Example 592, 1-{(3R)-3-[(3-{3-[7-fluoro-3-(propan-2-yl)-1H-indazol-1-yl]-1,2,4-oxadiazol-5-yl}cyclobutyl)amino]pyrrolidin-1-yl}ethanone]	< 20
CC(C)c1nn(-c2noc(C3CC(NCCC4CCOC4)C3)n2)c2c(F)cccc12 (centres unmarked) [Example 599, 3-{3-[7-fluoro-3-(propan-2-yl)-1H-indazol-1-yl]-1,2,4-oxadiazol-5-yl}-N-[2-(tetrahydrofuran-3-yl)ethyl]cyclobutanamine]	< 20
CC(C)c1nn(-c2noc(C3CC(NC4CCCOC4)C3)n2)c2c(F)cccc12 (centres unmarked) [Example 600, N-(3-{3-[7-fluoro-3-(propan-2-yl)-1H-indazol-1-yl]-l,2,4-oxadiazol-5-yl}cyclobutyl)tetrahydro-2H-pyran-3-amine]	< 20
CC(C)c1nn(-c2noc(C3CC(NCC4CCCOC4)C3)n2)c2c(F)cccc12 (centres unmarked) [Example 601, 3-{3-[7-fluoro-3-(propan-2-yl)-1H-indazol-1-yl]-1,2,4-oxadiazol-5-yl}-N-{tetrahydro-2H-pyran-3-ylmethyl)cyclobutanamine]	< 20
CC(C)c1nn(-c2noc(C3CC(NCC4CCCCO4)C3)n2)c2c(F)cccc12 (centres unmarked) [Example 602, 3-{3-[7-fluoro-3-(propan-2-yl)-1H-indazol-1-yl]-1,2,4-oxadiazol-5-yl}-N-(tetrahydro-2H-pyran-2-ylmethyl)cyclobutanamine]	< 20
CC(C)c1nn(-c2noc(C3CC(NCCC4CCOCC4)C3)n2)c2c(F)cccc12 (centres unmarked) [Example 603, 3-{3-[7-fluoro-3-(propan-2-yl)-1H-indazol-1-yl]-1,2,4-oxadiazol-5-yl}-N-[2-(tetrahydro-2H-pyran-4-yl)ethyl]cyclobutanamine]	28.6
CC(C)c1nn(-c2noc(C3CC(NCCC4CCCOC4)C3)n2)c2c(F)cccc12 (centres unmarked) [Example 604, 3-{3-[7-fluoro-3-(propan-2-yl)-1H-indazol-1-yl]-1,2,4-oxadiazol-5-yl}-N-[2-(tetrahydro-2H-pyran-3-yl)ethyl]cyclobutanamine]	< 20
CC(C)c1nn(-c2noc(C3CC(NC4COC4)C3)n2)c2c(F)cccc12 (centres unmarked) [Example 606, N-(3-{3-[7-fluoro-3-(propan-2-yl)-1H-indazol-1-yl]-1,2,4-oxadiazol-5-yl}cyclobutyl)oxetan-3-amine]	86.7
CC(C)c1nn(-c2noc(C3CC(NC4CCOC4)C3)n2)c2c(F)cccc12 (centres unmarked) [Example 607, N-(3-{3-[7-fluoro-3-(propan-2-yl)-1H-indazol-1-yl]-1,2,4-oxadiazol-5-yl)cyclobutyl)tetrahydrofuran-3-amine]	< 20
CC(C)c1nn(-c2noc(C3CC(NCC4CCOC4)C3)n2)c2c(F)cccc12 (centres unmarked) [Example 608, 3-{3-[7-fluoro-3-(propan-2-yl)-1H-indazol-1-yl]-1,2,4-oxadiazol-5-yl}-N-(tetrahydrofuran-3-ylmethyl)cyclobutanamine]	< 20
COCCCNC1CC(c2nc(-n3nc(C(C)C)c4cccc(F)c43)no2)C1 (centres unmarked) [Example 609, 3-{3-[7-fluoro-3-(propan-2-yl)-1H-indazol-1-yl]-1,2,4-oxadiazol-5-yl}-N-(3-methoxypropyl)cyclobutanamine]	< 20
COCCN(CC1CCOCC1)C1CC(c2nc(-n3nc(C(C)C)c4cccc(F)c43)no2)C1 (centres unmarked) [Example 613, 3-{3-[7-fluoro-3-(propan-2-yl)-1H-indazol-1-yl]-1,2,4-oxadiazol-5-yl}-N-(2-methoxyethyl)-N-{tetrahydro-2H-pyran-4-ylmethyl)cyclobutanamine]	< 20
COCCN(C1CCOCC1)[C@H]1C[C@H](c2nc(-n3nc(C(C)C)c4cccc(F)c43)no2)C1 [Example 615, N-(trans-3-{3-[7-fluoro-3-(propan-2-yl)-1H-indazol-1-yl]-1,2,4-oxadiazol-5-yl}cyclobutyl)-N-(2-methoxyethyl)tetrahydro-2H-pyran-4-amine]	27.4
CC(C)c1nn(-c2noc(C3CCC(NCCC4CCCOC4)CC3)n2)c2c(F)cccc12 (centres unmarked) [Example 619, 4-{3-[7-fluoro-3-(propan-2-yl)-1H-indazol-1-yl]-1,2,4-oxadiazol-5-yl}-N-[2-(tetrahydro-2H-pyran-3-yl)ethyl]cyclohexanamine]	39.2
COCCNC1CCC(c2nc(-n3nc(C(C)C)c4cccc(F)c43)no2)CC1 (centres unmarked) [Example 621, 4-{3-[7-fluoro-3-(propan-2-yl)-1H-indazol-1-yl]-1,2,4-oxadiazol-5-yl}-N-(2-methoxyethyl)cyclohexanamine]	69.4
COc1nn(-c2noc(C3CCN(C4CCN(C(C)=O)CC4)CC3)n2)c2c(F)cccc12 [Example 624, 1-{4-[3-(7-fluoro-3-methoxy-1H-indazol-1-yl)-1,2,4-oxadiazol-5-yl]-1,4′-bipiperidin-1′-yl}ethanone]	< 20

— patent publication US20140057895A1, “INDAZOLE- AND PYRROLOPYRIDINE-DERIVATIVE AND PHARMACEUTICAL USE THEREOF” (priority 2011, published 2014)
